Experimental data published in patent US20250059205A1, “Heterocyclic Compounds and Methods of Use” (AMGEN INC., priority 2021, published 2025).

Assays:
[1] = target: GDP-bound KRAS protein (aa 1-169), containing both G12D and C118A amino acid substitutions (Homo sapiens, UniProt P01116, C118A/G12D); assay: KRAS G12D Coupled Nucleotide Exchange Assay; assay type: biochemical; conditions: 2 h compound pre-incubation
Description: Following compound pre-incubation, purified SOS protein (aa 564-1049) and GTP (Roche 10106399001) were added to the assay wells and incubated for an additional 30 min. […] The assay plates were then read on a PerkinElmer EnVision Multilabel Reader, using AlphaScreen® technology, and data were analyzed using a 4-parameter logistic model to calculate IC50 values.

[2] = target: His-tagged KRAS G12D protein (Homo sapiens, UniProt P01116, G12D); assay: KRAS G12D TR-FRET Assay; assay type: binding
[3] = tested on: Phosphorylation of ERK1/2 in A-427 cells; assay: Phospho-ERK1/2 MSD Assay (A-427 cells); assay type: cell-based; conditions: Homo sapiens, A-427, 2 h, 2 h treatment, read-out: p-ERK (A427 cells) IC50
In short: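 ERK1/2 phosphorylation measured by Meso Scale whole-cell lysate assay after A-427 cells were exposed to a titration of compound for 2 h at 37 °C.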

[4] = tested on: Phosphorylation of ERK1/2 in AsPC-1 cells; assay: Phospho-ERK1/2 MSD Assay (AsPC-1 cells); assay type: cell-based; conditions: Homo sapiens, ASPC1, 2 h, 2 hours treatment, read-out: p-ERK (AsPC-1 cells) IC50
In short: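 Read-out: MSD electrochemiluminescent detection of phosphorylated ERK1/2 in whole-cell lysates, fitted to a 4-parameter logistic curve for IC50. Prior to lysis, AsPC-1 cells (25,000 per well) received a 2 h compound dose-response at 37 °C.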

His-tagged KRAS G12D protein, sequence (P01116 1-188 isoform P01116-2 G12D): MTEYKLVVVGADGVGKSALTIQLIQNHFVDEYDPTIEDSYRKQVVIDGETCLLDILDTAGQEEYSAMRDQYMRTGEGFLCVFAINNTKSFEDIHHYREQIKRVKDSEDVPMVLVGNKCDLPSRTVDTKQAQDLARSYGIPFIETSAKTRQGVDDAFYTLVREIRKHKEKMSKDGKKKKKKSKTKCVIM
GDP-bound KRAS protein (aa 1-169), containing both G12D and C118A amino acid substitutions, sequence (P01116 1-169 isoform P01116-2 G12D/C118A): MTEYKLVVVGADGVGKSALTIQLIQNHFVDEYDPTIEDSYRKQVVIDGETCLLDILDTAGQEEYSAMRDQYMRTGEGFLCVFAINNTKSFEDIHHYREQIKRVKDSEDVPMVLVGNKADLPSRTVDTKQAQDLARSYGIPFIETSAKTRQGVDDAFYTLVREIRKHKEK

Row | Structure (SMILES) | Avg 2 h Coupled Exchange IC50 [1] [nM] | IC50 [2] [nM] | IC50 [3] [nM] | IC50 [4] [nM]
1 | CCc1cccc2cc(O)cc(-c3c(Cl)cc4c(N5C[C@@H]6CC[C@H]5CN6)nc(OC[C@@]56CCCN5C[C@H](F)C6)nc4c3F)c12 [Example 130, 4-(4-((1S,4S)-2,5-diazabicyclo[2.2.2]octan-2-yl)-6-chloro-8-fluoro-2-(((2R,7aS)-2-fluorotetrahydro-1H-pyrrolizin-7a(5H)-yl)methoxy)quinazolin-7-yl)-5-ethylnaphthalen-2-ol] | 5 | 3 | 52 | 102
2 | Nc1cc2ccccc2c(-c2ccc3c(N4CC5CCC(C4)N5)nc(OC[C@@]45CCCN4C[C@H](F)C5)nc3c2F)n1 [Example 220] | 22 | 60 | 2860 | 4400
3 | C=C(C)c1ccc2[nH]ncc2c1-c1ccc2c(N3C[C@H]4CC[C@@H](C3)N4)nc(OC[C@@]34CCCN3C[C@H](F)C4)nc2c1F [Example 198, 4-((1R,5S)-3,8-Diazabicyclo[3.2.1]octan-3-yl)-8-fluoro-2-(((2R,7aS)-2-fluorotetrahydro-1H-pyrrolizin-7a(5H)-yl)methoxy)-7-(5-(prop-1-en-2-yl)-1H-indazol-4-yl)quinazoline] | 18 | 42 | 5270 | 2930
4 | Oc1cc(-c2c(Cl)cc3c(N4C[C@H]5CC[C@@H](C4)N5)nc(OC[C@]45CCCN4C[C@H](F)C5)nc3c2F)c2ccccc2c1 [Example 51, 4-(4-((1R,5S)-3,8-diazabicyclo[3.2. 1]octan-3-yl)-6-chloro-8-fluoro-2-(((2R,7aR)-2-fluorotetrahydro-1H-pyrrolizin-7a(5H)-yl)methoxy)quinazolin-7-yl)naphthalen-2-ol] | 1 | 3 | 136 | 185
5 | Oc1cc(-c2c(F)cc3c(N4C[C@@H]5CC[C@H]4CN5)nc(OCC45CCCN4C[C@H](F)C5)nc3c2F)c2c(F)c(F)ccc2c1 (atropisomer, axis not shown; (M)) [Example 233, (M)-4-(4-((1S,4S)-2,5-Diazabicyclo[2.2.2]octan-2-yl)-6,8-difluoro-2-(((2R,7aS)-2-fluorotetrahydro-1H-pyrrolizin-7a(5H)-yl)methoxy)quinazolin-7-yl)-5,6-difluoronaphthalen-2-ol] | 1 | 1 | 5 | 27
6 | Oc1cc(-c2ccc3c(N4C[C@H]5CC[C@@H](C4)N5)nc(OC[C@]45CCCN4C[C@H](F)C5)nc3c2F)c2ccccc2c1 [Example 44, 4-(4-((1R,5S)-3,8-diazabicyclo[3.2. 1]octan-3-yl)-8-fluoro-2-(((2R,7aR)-2-fluorotetrahydro-1H-pyrrolizin-7a(5H)-yl)methoxy)quinazolin-7-yl)naphthalen-2-ol] | 2 | 2 | 19 | 114
